Source: patent publication US20040121946A9, “Inducing cellular immune responses to her2/neu using peptide and nucleic acid compositions” (priority 2002, published 2004)

Key:
DRB1*0101 (DR1) = DRB1*0101 (DR1) (Homo sapiens, UniProt P01903+P01911, A100R/D57E/F55L/F60I/F76Y/I96L/L162R/M171V/P40L/Q125E/R42F/V115G/Y59C); assay: HLA class II peptide binding assay, purified HLA; settings: unit not given
DRB1*0301 (DR3) = DRB1*0301 (DR3) (Homo sapiens, UniProt P01903+P01911, A100K/A102G/A103R/A169T/F55Y/I96L/K41T/L162R/M171V/P40S/Q125H/Q178H/Q39Y/R42S/S66N/T106N/T262R/W38E/Y61H); assay: HLA class II peptide binding assay, purified HLA; settings: unit not given
DRB1*0401 (DR4w4) = DRB1*0401 (DR4w4) (Homo sapiens, UniProt P01903+P01911, A100K/A169T/F76Y/I96L/K127E/L162R/M171V/N62H/P40V/Q125Y/R42H/S133A/S149N/S66Y/V115G/V209L/W38E); assay: HLA class II peptide binding assay, purified HLA; settings: unit not given
DRB1*0701 (DR7) = DRB1*0701 (DR7) (Homo sapiens, UniProt P01903+P01911, A100R/A102G/A103Q/D57E/D86V/E43K/F76Y/K127E/L162R/M171V/P40G/Q125H/Q99D/R33Q/R42Y/R54Q/S133A/S66F/T210M/V115G/Y107V/Y59L/Y89S); assay: HLA class II peptide binding assay, purified HLA; settings: unit not given
DRB1*0802 (DR8w2) = DRB1*0802 (DR8w2) (Homo sapiens, UniProt P01903+P01911, A100R/A103L/A169T/F76Y/H45Y/I96F/K41T/L162R/M171V/P40S/Q125H/Q178H/Q39Y/Q99D/R218S/R42G/S66Y/V115G/W38E); assay: HLA class II peptide binding assay, purified HLA; settings: unit not given
DRB1*1101 (DR5w11) = DRB1*1101 (DR5w11) (Homo sapiens, UniProt P01903+P01911, A100R/A169T/A87E/I96F/K41T/L162R/M171V/P40S/Q125H/Q178H/Q39Y/Q99D/R42S/S66Y/T262R/V115G/W38E); assay: HLA class II peptide binding assay, purified HLA; settings: for DR5w11 binding data: unit not given
DRB1*1302 (DR6w19) = DRB1*1302 (DR6w19) (Homo sapiens, UniProt P01903+P01911, A100E/A169T/K41T/L162R/M171V/P40S/Q125H/Q178H/Q39Y/Q99D/R42S/S66N/T262R/V115G/W38E/Y61H); assay: HLA class II peptide binding assay, purified HLA; settings: unit not given
DRB1*1501 (DR2w2β1) = DRB1*1501 (DR2w2β1) (Homo sapiens, UniProt P01903+P01911); assay: HLA class II peptide binding assay, purified HLA; settings: for DR2wB1 binding data: Table XIX, DR supermotif peptides; for IC50: Table XXIX, read-out: DR2w2β1 nM
DRB5*0101 (DR2w2β2) = DRB5*0101 (DR2w2β2) (Homo sapiens, UniProt P01903+Q30154); assay: HLA class II peptide binding assay, purified HLA; settings: for DR2w2B2 binding data: unit not given
[1] = tested on: HLA-DR molecules (DR1, DR4w4, DR7, DRB5*0101, DRB1*1501, DRB1*1101, DRB1*0802, DRB1*1302); assay: DR supertype cross-reactive binding; design: species or system human; settings: for DR147 Binding / DR147 Cross-binding: number of DR1, DR4w4, DR7 bound; for DR147 Binding: Table XXIX; for DR147 Cross-binding: Table XXVIII; for Broad Binding (5/8): number of the 8 DR alleles bound; for No. of DR Alleles Crossbound: Table XXXI
[2] = Table XIX, DR supermotif peptides
[3] = Table XXa, DR 3a motif peptides

Row | Compound | DR1 binding data (DRB1*0101 (DR1); [2]) | DR3 binding data (DRB1*0301 (DR3); [2]) | DR4w4 binding data (DRB1*0401 (DR4w4); [2]) | DR7 binding data (DRB1*0701 (DR7); [2]) | DR8w2 binding data (DRB1*0802 (DR8w2); [2]) | DR5w11 binding data (DRB1*1101 (DR5w11); [2]) | DR6w19 binding data (DRB1*1302 (DR6w19); [2]) | DR2wB1 binding data (DRB1*1501 (DR2w2β1); unit not given) | DR2w2B2 binding data (DRB5*0101 (DR2w2β2); [2]) | DR147 Binding [1] | DR147 Cross-binding [1] | Broad Binding (5/8) [1] | No. of DR Alleles Crossbound [1] | other results
1 | CC(C)C[C@H](NC(=O)[C@H](CO)NC(=O)[C@H](C)NC(=O)[C@H](CC(N)=O)NC(=O)[C@@H](NC(=O)[C@@H]1CCCN1C(=O)[C@H](CC(C)C)NC(=O)[C@H](Cc1ccc(O)cc1)NC(=O)[C@@H](NC(=O)[C@H](CC(C)C)NC(=O)[C@H](CCC(=O)O)NC(=O)[C@H](CC(C)C)NC(=O)[C@@H](N)CC(N)=O)[C@@H](C)O)[C@@H](C)O)C(=O)N[C@@H](CO)C(=O)N[C@@H](Cc1ccccc1)C(=O)O | 0.4700 | 0.0010 | 0.3800 | 0.0680 | 0.0220 | 0.0050 | 0.0017 | 0.0280 | 0.0090 | 3 | 3 | 4 |  | 
2 | CC[C@H](C)[C@H](NC(=O)CNC(=O)[C@H](CC(=O)O)NC(=O)[C@H](Cc1ccc(O)cc1)NC(=O)[C@@H]1CCCN1C(=O)[C@H](CCCCN)NC(=O)[C@H](C)NC(=O)CNC(=O)[C@H](Cc1ccccc1)NC(=O)[C@@H](NC(=O)[C@H](CCSC)NC(=O)[C@H](CC(C)C)NC(=O)[C@H](CCC(=O)O)NC(=O)[C@H](Cc1c[nH]c2ccccc12)NC(=O)[C@@H](N)C(C)C)[C@@H](C)O)C(=O)O | 0.0870 | 0.0010 | 0.0550 | 0.0370 | 0.0089 | 0.0054 | 0.0004 | 0.0990 | 0.1000 | 3 | 3 | 5 | 5 | IC50 (DRB1*1101 (DR5w11); Table XXIX, read-out: DR5w11 nM): 3700 nM; IC50 (DRB1*1501 (DR2w2β1)): 92 nM; IC50 (DRB5*0101 (DR2w2β2); Table XXIX, read-out: DR2w2β2 nM): 200 nM
3 | CC[C@H](C)[C@H](NC(=O)CNC(=O)[C@H](Cc1ccccc1)NC(=O)[C@@H](NC(=O)[C@@H](NC(=O)CNC(=O)[C@H](CC(C)C)NC(=O)[C@@H](N)C(C)C)C(C)C)C(C)C)C(=O)N[C@@H](CC(C)C)C(=O)N[C@H](C(=O)N[C@@H](CCCCN)C(=O)N[C@@H](CCCNC(=N)N)C(=O)N[C@@H](CCCNC(=N)N)C(=O)N[C@@H](CCC(N)=O)C(=O)N[C@@H](CCC(N)=O)C(=O)O)[C@@H](C)CC | 0.0700 | 0.0021 | 0.0029 | 0.0320 | 0.6400 | 0.4700 | 0.0150 | 0.0110 | 0.0620 | 2 | 2 | 7 | 7 | 
4 | CC[C@H](C)[C@H](NC(=O)[C@H](CCCNC(=N)N)NC(=O)[C@H](CCSC)NC(=O)[C@@H](N)CCC(N)=O)C(=O)N[C@@H](CC(C)C)C(=O)N[C@@H](CCCCN)C(=O)N[C@@H](CCC(=O)O)C(=O)N[C@H](C(=O)N[C@@H](CCC(=O)O)C(=O)N[C@@H](CC(C)C)C(=O)N[C@@H](CCCNC(=N)N)C(=O)N[C@@H](CCCCN)C(=O)N[C@H](C(=O)N[C@@H](CCCCN)C(=O)N[C@H](C(=O)O)C(C)C)C(C)C)[C@@H](C)O |  |  |  |  |  |  |  |  |  |  |  |  | 3 | DR1 binding data (DRB1*0101 (DR1); [3]): 0.0419; DR3 binding data (DRB1*0301 (DR3); [3]): 0.3200; DR4w4 binding data (DRB1*0401 (DR4w4); [3]): −0.0055; DR7 binding data (DRB1*0701 (DR7); [3]): 0.0130; DR8w2 binding data (DRB1*0802 (DR8w2); [3]): 0.0064; DR5w11 binding data (DRB1*1101 (DR5w11); [3]): 0.0041; DR6w19 binding data (DRB1*1302 (DR6w19); [3]): 0.0008; DR2w2B1 binding data (DRB1*1501 (DR2w2β1); Table XXa, DR 3a motif peptides, unit not given): 0.0150; DR2w2B2 binding data (DRB5*0101 (DR2w2β2); [3]): 0.5900
5 | CC(C)C[C@H](NC(=O)[C@H](CO)NC(=O)[C@H](C)NC(=O)[C@H](CC(N)=O)NC(=O)[C@@H](NC(=O)[C@@H]1CCCN1C(=O)[C@H](CC(C)C)NC(=O)[C@H](Cc1ccc(O)cc1)NC(=O)[C@@H](NC(=O)[C@@H](N)CC(C)C)[C@@H](C)O)[C@@H](C)O)C(=O)N[C@@H](CO)C(=O)N[C@@H](Cc1ccccc1)C(=O)N[C@@H](CC(C)C)C(=O)N[C@@H](CCC(N)=O)C(=O)N[C@@H](CC(=O)O)C(=O)O | 0.4900 | 0.0150 | 0.3300 | 0.3200 | 0.0054 | 0.0041 | 0.0280 | 0.0100 | 0.0560 | 3 | 3 | 6 |  | 
6 | ELELRKVKVLGSGAF | 0.0160 | 0.0045 | 0.0350 | 0.0380 | 0.0250 | 0.0061 | 0.0014 | 0.0019 | 0.0052 |  |  |  |  | 
7 | CC[C@H](C)[C@H](NC(=O)[C@H](CCCCN)NC(=O)[C@H](CCCCN)NC(=O)[C@@H](N)CS)C(=O)N[C@@H](Cc1ccccc1)C(=O)NCC(=O)N[C@@H](CO)C(=O)N[C@@H](CC(C)C)C(=O)N[C@@H](C)C(=O)N[C@@H](Cc1ccccc1)C(=O)N[C@@H](CC(C)C)C(=O)N1CCC[C@H]1C(=O)N[C@@H](CCC(=O)O)C(=O)N[C@@H](CO)C(=O)N[C@@H](Cc1ccccc1)C(=O)O | 0.2400 | 0.0010 | −0.0025 | 0.0270 | −0.0004 | −0.0005 | 0.0034 | 0.0070 | 0.0016 | 2 | 2 | 2 |  | IC50 (DRB1*1501 (DR2w2β1)): 1300 nM
8 | ASPLTSHSAVVGIL | 0.0890 | 0.0010 | −0.0025 | 0.0350 | −0.0004 | −0.0005 | 0.0480 | 0.0950 | 0.0037 |  |  |  |  | 
